Patent US5384314A, “1α-fluoro-25-hydroxy-16-ene-23-yne-cholecalciferol” (Hoffmann-La Roche Inc., priority 1994, dated 1995)
Like-named read-outs stand apart in the source and are kept apart here.

Tests used:
[1] = system: sebaceous glands in ears of the male Syrian hamster; details: cited from earlier work
[2] = system: human sebocytes (sebaceous cells); assay: inhibition of human sebocyte proliferation in vitro; format: cell-based; details: for IC50: read-out: ED50 (amount of compound necessary to inhibit the proliferation of the sebaceous cells by 50% as compared to a control)
Description: Sebaceous cells were isolated from adult human sebaceous glands as in J. Invest. Dermatol. 96:341-348 (1991) and cultured on a layer of growth-arrested 3T3 mouse fibroblasts.
The cells were cultured in Iscove's medium containing 10% fetal calf serum and 4 μg/ml dexamethasone.
Cells were plated in medium without 1α-fluoro-25-hydroxy-16-ene-23-yne-cholecalciferol. 24-48 hours after the initial plating, the cultures were given fresh medium containing the compound of the invention. Every 48 hours, the cultures were given fresh medium containing the compound of the invention. On the day of harvesting, the cultures were rinsed with a 0.03% EDTA in PBS, to remove only the 3T3 fibroblasts. The remaining sebocyyte colonies were incubated in 0.05% trypsin/0.03% EDTA to create a single cell suspension of sebocytes. The cells were diluted, mixed vigorously to maintain a single cell suspension, and counted in a hemocytometer.
The compounds tested were handled in the following manner. Stock solutions were made up as 10^-2 M solutions in degassed 100% ethanol and stored at -20° C. in the dark. Solutions were never used after storage of more than one month. During experimental use the solutions, which were aliquoted, were thawed once and used by diluting directly into complete medium to the appropriate concentration, at 10^-6, 10^-7, 10^-8 M and 10^-9. The compounds tested were
The results are summarized in table 1 as the amount of compound necessary to inhibit the proliferation of the sebaceous cells by 50% as compared to a control (ED50). The control was a culture treated with diluent only.

[3] = system: hamster ear sebaceous gland; assay: hamster ear sebaceous gland model, topical study; format: in vivo; details: 4 weeks, vs control
Description: The compound was evaluated for topical anti-acne activity in the hamster ear sebaceous gland model. For these studies, the compound was dissolved in acetone. Fifty (50) μl of the drug-containing solution was applied daily (5 days per week) to the dorsal side of the right ear of the hamster. Control hamsters received 50 μl of acetone. The animals were sacrificed after 4 weeks. The ears were removed and processed for histological evaluation. The ventral surface was separated from the rest of the ear. A 2 mm punch was removed 5 mm from the tip of the ear and stained in 0.1% Sudan Black B dissolved in 100% propylene glycol overnight. After destaining, the areas of the sebaceous glands were determined from the cross sections by image analysis using a Donsato Image Analysis System. The data was expressed as a percentage change from control animals for 80-120 sebaceous glands per dose.

[4] = system: hamster ear sebaceous gland; assay: hamster ear sebaceous gland model, oral study; format: in vivo, male Golden Syrian hamsters; details: 4 weeks
Description: The purpose of the test was to evaluate the effect of the inventive compound on the sebaceous glands of the hamster ear after oral administration of the compound. 200 μl of the compound of the invention dissolved in Tween 20/water/ethanol […] administered daily (5 days per week) by garage to male Golden Syrian hamsters. The animals were sacrificed at 4 weeks and the ears were processed for histological evaluation. One ear was fixed with 10% buffered formalin, processed for paraffin embedding, sectioned, and stained with hematoxyline and eosin (H&E). The area of the sebaceous glands was measured on histologically prepared cross-sections of the ear by image analysis using a Leitz TAS Plus system. Data is given as the average areas of 48 sebaceous glands per dose.

SMILES: C=C1/C(=C\C=C2/CCC[C@]3(C)[C@@H]([C@H](C)CCCC(C)(C)O)CC[C@@H]23)C[C@@H](O)C[C@@H]1O [1,25-dihydroxycholecalciferol, reference compound]
- size of sebaceous glands in ears (result in words) [1]: reducing the size of sebaceous glands in ears of the male Syrian hamster
- IC50 ([2]; Homo sapiens): 50 nM

SMILES: C=C1/C(=C\C=C2/CCC[C@]3(C)C([C@H](C)CC#CC(C)(C)O)=CC[C@@H]23)C[C@@H](O)C[C@@H]1F [1α-fluoro-25-hydroxy-16-ene-23-yne-cholecalciferol]
- IC50 ([2]; human sebocytes in vitro, control treated with diluent only): 1 nM
- human sebocyte proliferation in vitro (result in words) ([2]; in vitro): inhibits human sebocyte proliferation in vitro
- Change in Hamster Ear Sebaceous Gland Size Cross Section Analysis ([3]; 0.001 μg/animal, ns = not statistically significant from controls): -3%
- Change in Hamster Ear Sebaceous Gland Size Cross Section Analysis ([3]; 0.01 μg/animal, ns = not statistically significant from controls): -18%
- Change in Hamster Ear Sebaceous Gland Size Cross Section Analysis ([3]; 0.1 μg/animal, ns = not statistically significant from controls): -28%
- Change in Hamster Ear Sebaceous Gland Size Cross Section Analysis ([3]; 1.0 μg/animal, not marked ns): -40%
- % Change in Hamster Ear Sebaceous Gland Size Cross Section Analysis ([4]; 0.05 μg/kg): -28%
- % Change in Hamster Ear Sebaceous Gland Size Cross Section Analysis ([4]; 0.5 μg/kg): -28%
- % Change in Hamster Ear Sebaceous Gland Size Cross Section Analysis ([4]; 5.0 μg/kg): -34%
- % Change in Hamster Ear Sebaceous Gland Size Cross Section Analysis ([4]; 50.0 μg/kg): -35%
